Data on six molecules can be found in PubChem BioAssay (NCI).

SMILES strings stand for the structures.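 Five concentrations, 48 hours, 96-well plates. GI50: concentration for 50% inhibition of growth. TGI denotes the concentration required for complete inhibition of growth.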

Test systems include U251 CNS; ACHN renal; NCI/ADR-RES ovarian; MDA-MB-231 breast; HOP-92 NSCLC; HCT-15 colon; CCRF-CEM leukemia; DU-145 prostate; NCI-H522 lung; SF-295 CNS.
Common to all, as to test: DTP human tumour cell line panel, 48 h

As usually defined, the GI50 is the concentration that inhibits growth by half. One may read the TGI as the concentration giving total growth inhibition. Higher therefore signals less potent growth arrest. Turning to `Cc1cc(Br)c(NC(=O)c2c(-c3c(Cl)cccc3Cl)noc2C)c(Br)c1`, the GI50 in the assay on U251 CNS, with ACHN renal, in the assay with NCI/ADR-RES ovarian, with MDA-MB-231 breast, in the assay with HOP-92 NSCLC and in the assay with HCT-15 colon was over 100 µM throughout. Besides, the GI50 in the assay with CCRF-CEM leukemia was over 100 µM; in the assay on DU-145 prostate, 90.8 µM; in the assay on NCI-H522 lung it was over 100 µM; in the assay on SF-295 CNS, 2.15 µM. For the same molecule, the concentration for total growth inhibition (TGI) with U251 CNS, in the assay with ACHN renal, with NCI/ADR-RES ovarian, in the assay with MDA-MB-231 breast, with HOP-92 NSCLC and in the assay with HCT-15 colon was over 100 µM in each case. The TGI in the assay on CCRF-CEM leukemia, in the assay on DU-145 prostate, with NCI-H522 lung and in the assay with SF-295 CNS was over 100 µM each time.
As for `CCN(CC)c1ccc2nc3ccc(=[N+](CC)CC)cc-3oc2c1`, the GI50 in the assay with U251 CNS is 0.119 µM; with ACHN renal it was 1.56 µM; with NCI/ADR-RES ovarian it was 6.52 µM; with MDA-MB-231 breast, 0.0667 µM; in the assay with HOP-92 NSCLC, 1.31 µM; in the assay on HCT-15 colon, 1.49 µM. The 50% growth inhibitory concentration (GI50) with CCRF-CEM leukemia was 0.0973 µM; in the assay with DU-145 prostate, 0.522 µM; in the assay with NCI-H522 lung, 0.0534 µM; with SF-295 CNS, 0.28 µM. For the same molecule, the TGI in the assay on U251 CNS is over 100 µM; in the assay with ACHN renal it was 59.8 µM; in the assay with NCI/ADR-RES ovarian, over 73.3 µM; with MDA-MB-231 breast, 2.96 µM; in the assay with HOP-92 NSCLC, 5.14 µM; in the assay on HCT-15 colon, over 64.8 µM. In addition, the values for the total growth inhibition concentration (TGI) in the assay on CCRF-CEM leukemia, in the assay with DU-145 prostate and in the assay with NCI-H522 lung were over 100 µM, 20.9 µM and 0.329 µM, respectively.
On to `CCCCS(=O)c1sc2nc(-c3cccs3)cc(-c3ccccc3)c2c1N` (centres undefined), for which the GI50 with U251 CNS is 18 µM; with ACHN renal, 9.1 µM; in the assay with NCI/ADR-RES ovarian, 6.42 µM; in the assay with MDA-MB-231 breast it was 18.2 µM; in the assay with HOP-92 NSCLC, 5.78 µM; in the assay on HCT-15 colon, 9.02 µM. The GI50 in the assay with CCRF-CEM leukemia was 6.71 µM; in the assay with DU-145 prostate, 30.4 µM; in the assay on NCI-H522 lung, 17.3 µM; in the assay on SF-295 CNS, 9.88 µM. Besides, the TGI is over 100 µM with U251 CNS; over 95.3 µM in the assay on ACHN renal; over 100 µM in the assay with NCI/ADR-RES ovarian; over 100 µM in the assay on MDA-MB-231 breast; 66.1 µM in the assay on HOP-92 NSCLC; over 100 µM in the assay on HCT-15 colon. The TGI is over 84.8 µM in the assay with CCRF-CEM leukemia, over 100 µM with DU-145 prostate, over 87.8 µM in the assay with NCI-H522 lung and over 100 µM with SF-295 CNS.
For `OCCCCC#Cc1ccccc1C#Cc1cccc(C(F)(F)F)c1`, the GI50 was 17.2 µM in the assay on U251 CNS; 18.3 µM in the assay on ACHN renal; 15.5 µM in the assay with NCI/ADR-RES ovarian; 18.3 µM with MDA-MB-231 breast; 19.9 µM in the assay with HOP-92 NSCLC; 16.3 µM in the assay with HCT-15 colon. The GI50 in the assay on CCRF-CEM leukemia was 20.2 µM; in the assay with DU-145 prostate, 15.3 µM; with NCI-H522 lung, 16.6 µM; in the assay with SF-295 CNS it was 16.5 µM. Further, the TGI with U251 CNS stood at 31.6 µM; in the assay with ACHN renal, 32.4 µM; in the assay with NCI/ADR-RES ovarian it was 31.1 µM; in the assay with MDA-MB-231 breast, 33.4 µM; in the assay with HOP-92 NSCLC it was 36.2 µM; in the assay with HCT-15 colon it was 30.8 µM. The concentration for total growth inhibition (TGI) in the assay with CCRF-CEM leukemia worked out at 38.2 µM; with DU-145 prostate it was 29.9 µM; with NCI-H522 lung, 33.6 µM; in the assay with SF-295 CNS, 30.9 µM.
For the molecule `COCCN(Cc1ccc(F)cc1)c1ccc(CO)c(Cl)c1`, the GI50 was 6.33 µM in the assay with U251 CNS; 39.9 µM with ACHN renal; 27.1 µM in the assay with NCI/ADR-RES ovarian; 24.1 µM in the assay with MDA-MB-231 breast; 8.16 µM in the assay on HOP-92 NSCLC; 30.6 µM with HCT-15 colon. In addition, the GI50 with CCRF-CEM leukemia is 45.2 µM; in the assay with DU-145 prostate, 70.4 µM; in the assay on NCI-H522 lung, 39.1 µM; in the assay on SF-295 CNS, 3.83 µM. Also, the TGI with U251 CNS was over 54.7 µM; in the assay with ACHN renal, over 100 µM; in the assay with NCI/ADR-RES ovarian it was over 100 µM; in the assay with MDA-MB-231 breast, over 85.3 µM; in the assay with HOP-92 NSCLC, 60.1 µM; in the assay on HCT-15 colon it was over 100 µM. For the same molecule, the TGI with CCRF-CEM leukemia, with DU-145 prostate, in the assay with NCI-H522 lung and in the assay on SF-295 CNS was over 100 µM in each case.
In the case of `CCO/C=C1\SC(=S)N(c2ccc(OCC)cc2)C1=O`, the TGI with U251 CNS, in the assay with ACHN renal, in the assay with NCI/ADR-RES ovarian, with MDA-MB-231 breast, in the assay on HOP-92 NSCLC and with HCT-15 colon was over 100 µM throughout. The TGI in the assay on CCRF-CEM leukemia, with DU-145 prostate, with NCI-H522 lung and in the assay on SF-295 CNS was over 100 µM in each case.
